Species: Rattus norvegicus
Assay: DrugMatrix - Regimen: Daily Repeat
Type: toxicity, organism-based, Sprague-Dawley
Design: regimen Daily Repeat, gender Male, age 6-8 weeks
Conditions: in vivo, po, route oral GAVAGE, vehicle .5 % CMC; for ABSOLUTE BASOPHIL / ABSOLUTE EOSINOPHIL / ABSOLUTE LYMPHOCYTE / ABSOLUTE MONOCYTE / ABSOLUTE SEGMENTED NEUTROPHIL / BASOPHIL / EOSINOPHIL / ERYTHROCYTE COUNT / HEMATOCRIT / HEMOGLOBIN / LEUKOCYTE COUNT / LYMPHOCYTE / MEAN CORPUSCULAR HEMOGLOBIN / MEAN CORPUSCULAR HEMOGLOBIN CONCENTRATION / MEAN CORPUSCULAR VOLUME / MONOCYTE / NEUTROPHIL / NUCLEATED RED BLOOD CELLS / PLATELET COUNT: tissue Blood; for ALANINE AMINOTRANSFERASE / ALBUMIN / ALKALINE PHOSPHATASE / ASPARTATE AMINOTRANSFERASE / BLOOD UREA NITROGEN / CARBON DIOXIDE / CHLORIDE / CHOLESTEROL / CREATINE PHOSPHOKINASE / CREATININE / GLUCOSE / LACTATE DEHYDROGENASE / LIPASE / PHOSPHORUS / POTASSIUM / SODIUM / TOTAL BILIRUBIN / TOTAL PROTEIN / URIC ACID: tissue Plasma
[1] = 0 mg/kg, 72 h, dose level Control, time 3 day
[2] = 0 mg/kg, 120 h, dose level Control, time 5 day
[3] = 19 mg/kg, 72 h, dose level High, time 3 day

NCC(CC(=O)O)c1ccc(Cl)cc1 (centres undefined) [BACLOFEN]
ABSOLUTE BASOPHIL [1]: 0 CELLS/uL
ABSOLUTE EOSINOPHIL [1]: 171.33 CELLS/uL
ABSOLUTE LYMPHOCYTE [1]: 13776.5 CELLS/uL
ABSOLUTE MONOCYTE [1]: 180.83 CELLS/uL
ABSOLUTE SEGMENTED NEUTROPHIL [1]: 1121.33 CELLS/uL
BASOPHIL [1]: 0%
EOSINOPHIL [1]: 1%
ERYTHROCYTE COUNT [1]: 5.56 x10E6/uL
HEMATOCRIT [1]: 34.75%
HEMOGLOBIN [1]: 13.68 G/DL
LEUKOCYTE COUNT [1]: 15.25 x10E3/uL
LYMPHOCYTE [1]: 90.17%
MEAN CORPUSCULAR HEMOGLOBIN [1]: 24.6 pg
MEAN CORPUSCULAR HEMOGLOBIN CONCENTRATION [1]: 39.4 G/DL
MEAN CORPUSCULAR VOLUME [1]: 62.48 fL
MONOCYTE [1]: 1.17%
NEUTROPHIL [1]: 7.67%
NUCLEATED RED BLOOD CELLS [1]: 0 /100WBC
PLATELET COUNT [1]: 1342 x10E3/uL
ALANINE AMINOTRANSFERASE [1]: 49.67 u/L
ALBUMIN [1]: 4.15 G/DL
ALKALINE PHOSPHATASE [1]: 346.83 u/L
ASPARTATE AMINOTRANSFERASE [1]: 108.17 u/L
BLOOD UREA NITROGEN [1]: 17.33 mg/dL
CARBON DIOXIDE [1]: 25 mmol/L
CHLORIDE [1]: 100.83 MEQ/L
CHOLESTEROL [1]: 66.83 mg/dL
CREATINE PHOSPHOKINASE [1]: 788 u/L
CREATININE [1]: 0.18 mg/dL
GLUCOSE [1]: 151.67 mg/dL
LACTATE DEHYDROGENASE [1]: 982.5 u/L
LIPASE [1]: 10.33 u/L
PHOSPHORUS [1]: 11.23 mg/dL
POTASSIUM [1]: 6.37 MEQ/L
SODIUM [1]: 141.02 MEQ/L
TOTAL BILIRUBIN [1]: 0.18 mg/dL
TOTAL PROTEIN [1]: 5.9 G/DL
URIC ACID [1]: 1.8 mg/dL
ABSOLUTE BASOPHIL [2]: 0 CELLS/uL
ABSOLUTE EOSINOPHIL [2]: 69 CELLS/uL
ABSOLUTE LYMPHOCYTE [2]: 13632.83 CELLS/uL
ABSOLUTE MONOCYTE [2]: 139.83 CELLS/uL
ABSOLUTE SEGMENTED NEUTROPHIL [2]: 1225 CELLS/uL
BASOPHIL [2]: 0%
EOSINOPHIL [2]: 0.33%
ERYTHROCYTE COUNT [2]: 5.52 x10E6/uL
HEMATOCRIT [2]: 33.98%
HEMOGLOBIN [2]: 13.22 G/DL
LEUKOCYTE COUNT [2]: 15.07 x10E3/uL
LYMPHOCYTE [2]: 90.83%
MEAN CORPUSCULAR HEMOGLOBIN [2]: 23.95 pg
MEAN CORPUSCULAR HEMOGLOBIN CONCENTRATION [2]: 38.9 G/DL
MEAN CORPUSCULAR VOLUME [2]: 61.53 fL
MONOCYTE [2]: 0.83%
NEUTROPHIL [2]: 8%
NUCLEATED RED BLOOD CELLS [2]: 0 /100WBC
PLATELET COUNT [2]: 1196 x10E3/uL
ALANINE AMINOTRANSFERASE [2]: 49.17 u/L
ALBUMIN [2]: 4.2 G/DL
ALKALINE PHOSPHATASE [2]: 352.33 u/L
ASPARTATE AMINOTRANSFERASE [2]: 89.67 u/L
BLOOD UREA NITROGEN [2]: 18 mg/dL
CARBON DIOXIDE [2]: 27.67 mmol/L
CHLORIDE [2]: 101 MEQ/L
CHOLESTEROL [2]: 72.83 mg/dL
CREATINE PHOSPHOKINASE [2]: 417.5 u/L
CREATININE [2]: 0.18 mg/dL
GLUCOSE [2]: 150.5 mg/dL
LACTATE DEHYDROGENASE [2]: 517.33 u/L
LIPASE [2]: 9 u/L
PHOSPHORUS [2]: 11.87 mg/dL
POTASSIUM [2]: 6.57 MEQ/L
SODIUM [2]: 143.62 MEQ/L
TOTAL BILIRUBIN [2]: 0.2 mg/dL
TOTAL PROTEIN [2]: 6.08 G/DL
URIC ACID [2]: 1.45 mg/dL
ABSOLUTE BASOPHIL [3]: 0 CELLS/uL
ABSOLUTE EOSINOPHIL [3]: 0 CELLS/uL
ABSOLUTE LYMPHOCYTE [3]: 12161.33 CELLS/uL
ABSOLUTE MONOCYTE [3]: 182.33 CELLS/uL
ABSOLUTE SEGMENTED NEUTROPHIL [3]: 1123 CELLS/uL
BASOPHIL [3]: 0%
EOSINOPHIL [3]: 0%
ERYTHROCYTE COUNT [3]: 5.27 x10E6/uL
HEMATOCRIT [3]: 34.17%
HEMOGLOBIN [3]: 13.33 G/DL
LEUKOCYTE COUNT [3]: 13.47 x10E3/uL
LYMPHOCYTE [3]: 90.33%
MEAN CORPUSCULAR HEMOGLOBIN [3]: 25.37 pg
MEAN CORPUSCULAR HEMOGLOBIN CONCENTRATION [3]: 39.03 G/DL
MEAN CORPUSCULAR VOLUME [3]: 64.97 fL
MONOCYTE [3]: 1.33%
NEUTROPHIL [3]: 8.33%
NUCLEATED RED BLOOD CELLS [3]: 0 /100WBC
PLATELET COUNT [3]: 1177 x10E3/uL
ALANINE AMINOTRANSFERASE [3]: 54.33 u/L
ALBUMIN [3]: 4.03 G/DL
ALKALINE PHOSPHATASE [3]: 373.67 u/L
ASPARTATE AMINOTRANSFERASE [3]: 85.33 u/L
BLOOD UREA NITROGEN [3]: 15.33 mg/dL
CARBON DIOXIDE [3]: 26.33 mmol/L
CHLORIDE [3]: 101.67 MEQ/L
CHOLESTEROL [3]: 64 mg/dL
CREATINE PHOSPHOKINASE [3]: 394.67 u/L
CREATININE [3]: 0.16 mg/dL
GLUCOSE [3]: 125 mg/dL
LACTATE DEHYDROGENASE [3]: 438.33 u/L
LIPASE [3]: 10 u/L
PHOSPHORUS [3]: 11.93 mg/dL
POTASSIUM [3]: 7.01 MEQ/L
SODIUM [3]: 142.53 MEQ/L
TOTAL BILIRUBIN [3]: 0.2 mg/dL
TOTAL PROTEIN [3]: 5.53 G/DL
URIC ACID [3]: 1.57 mg/dL

From ChEMBL document CHEMBL3885881, “DrugMatrix”
